The text below walks through data of paper PMC4550771, “Synthesis and Validation of a Hydroxypyrone-Based, Potent, and Specific Matrix Metalloproteinase-12 Inhibitor with Anti-Inflammatory Activity In Vitro and In Vivo” (Mediators of Inflammation, 2015).

As usually defined, the IC50 is the midpoint of a concentration-inhibition curve.

The subject of assay [1] is LPS-induced lethality in mice. As to conditions: cited from earlier work.
Assay [2] concerns the target T1, human recombinant MMP-2 catalytic domain (Homo sapiens, UniProt P08253).
T1 construct: a panel of ten human recombinant MMP catalytic domains; purchased Enzo Life Sciences BML-AK016
The assay is described as follows: Recombinant MMP fluorescent assay kit (OmniMMP substrate). Type of assay: biochemical. On the procedure:
(§1) The specificity of the synthesized inhibitor was determined in vitro against a panel of ten human recombinant MMP catalytic domains using a fluorescent assay kit (BML-AK016, Enzo Life Sciences). Briefly, the compound was dissolved in dimethyl sulfoxide (DMSO) and further diluted in assay buffer (50 mM HEPES, 10 mM CaCl2, 0.05% Brij-35, and pH 7.5). Ten MMPs (MMP-1, MMP-2, MMP-3, MMP-7, MMP-8, MMP-9, MMP-10, MMP-12, MMP-13, and MMP-14) were individually incubated with varying concentrations of inhibitor for one hour at 37°C, followed by addition of a quenched fluorogenic substrate (OmniMMP fluorogenic substrate Mca-Pro-Leu-Gly-Leu-Dpa-Ala-Arg-NH2 [Mca is (7-methoxycoumarin-4-yl)-acetyl; Dpa is N-3-(2,4-dinitrophenyl)-L-α-β-diaminopropionyl], 4 μM in assay). […] After each fluorescent measurement the well plates were shaken for 2 sec to agitate the reagents. In each experiment we included a blank, a substrate control (substrate only in assay buffer), a positive control (NNGH, 1.3 μM final concentration), and negative control (only substrate and inhibitor in assay buffer). The latter was implemented to exclude possible interference of the inhibitor with the substrate. […] The IC50 values were determined in a single experimental run in duplicate. Data analysis and curve fitting for determination of IC50 values were performed in GraphPad Prism 6.

Assay [3] has as its target T2, human recombinant MMP-14 catalytic domain (Homo sapiens, UniProt P50281).
T2 construct: a panel of ten human recombinant MMP catalytic domains; purchased Enzo Life Sciences BML-AK016
Described as above. Type of assay: biochemical. On the procedure: as §1

For assay [4], the target named is T3, human recombinant MMP-7 catalytic domain (Homo sapiens, UniProt P09237).
T3 construct: a panel of ten human recombinant MMP catalytic domains; purchased Enzo Life Sciences BML-AK016
T3 sequence (P09237 95-267): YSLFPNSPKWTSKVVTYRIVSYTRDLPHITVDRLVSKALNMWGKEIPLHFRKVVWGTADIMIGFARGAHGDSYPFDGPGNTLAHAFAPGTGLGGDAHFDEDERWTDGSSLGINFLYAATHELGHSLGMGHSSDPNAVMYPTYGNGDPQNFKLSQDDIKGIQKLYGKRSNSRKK
The description is as above. It counts as biochemical. On the procedure:
as §1

The target in assay [5] is T4, human recombinant MMP-1 catalytic domain (Homo sapiens, UniProt P03956).
T4 construct: a panel of ten human recombinant MMP catalytic domains; purchased Enzo Life Sciences BML-AK016
T4 sequence (P03956 100-269 limits assumed): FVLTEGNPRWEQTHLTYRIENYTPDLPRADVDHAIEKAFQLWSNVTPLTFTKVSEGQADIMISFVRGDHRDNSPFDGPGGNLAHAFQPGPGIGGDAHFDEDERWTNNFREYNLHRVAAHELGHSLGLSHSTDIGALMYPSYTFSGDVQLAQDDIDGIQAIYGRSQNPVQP
The assay is described as above. Type of assay: biochemical. As to the method:
as §1

The target in assay [6] is T5, human recombinant MMP-13 catalytic domain (Homo sapiens, UniProt P45452).
T5 construct: a panel of ten human recombinant MMP catalytic domains; purchased Enzo Life Sciences BML-AK016
The assay is described as above. Type of assay: biochemical. On the procedure:
as §1

The target of assay [7] is T6, human recombinant MMP-3 catalytic domain (Homo sapiens, UniProt P08254).
T6 construct: a panel of ten human recombinant MMP catalytic domains; purchased Enzo Life Sciences BML-AK016
The description is as above. Type of assay: biochemical. As to the method: as §1

For assay [8], the target named is T7, human recombinant MMP-8 catalytic domain (Homo sapiens, UniProt P22894).
T7 construct: a panel of ten human recombinant MMP catalytic domains; purchased Enzo Life Sciences BML-AK016
The assay is described as above. It counts as biochemical. As to the method:
as §1

Assay [9] deals with T8, human recombinant MMP-9 catalytic domain (Homo sapiens, UniProt P14780).
T8 construct: a panel of ten human recombinant MMP catalytic domains; purchased Enzo Life Sciences BML-AK016
Described as above. Type of assay: biochemical. As to the method: as §1

Assay [10] addresses T9, human recombinant MMP-10 catalytic domain (Homo sapiens, UniProt P09238).
T9 construct: a panel of ten human recombinant MMP catalytic domains; purchased Enzo Life Sciences BML-AK016
The assay is described as above. It counts as biochemical. On the procedure:
as §1

Assay [11] concerns the target T10, human recombinant MMP-12 catalytic domain (Homo sapiens, UniProt P39900).
T10 construct: human recombinant MMP-3 (72006, AnaSpec) and MMP-12 catalytic domains (55525-1, AnaSpec); purchased AnaSpec 55525-1
The assay is described as follows: Recombinant MMP fluorescent assay kit (OmniMMP substrate), initial screen. Type of assay: biochemical. To be noted: pH 7.5, 1 h incubation at 37°C, OmniMMP substrate 4 μM, read-out: apparent IC50 MMP-12 (initial screen). On the procedure: as §1

The test system of assay [12] is LPS-induced lethality in C57BL/6 mice. The assay is described as follows: Endotoxemia model: survival after lethal LPS challenge. It counts as in vivo, mouse. As to conditions: 100 μg i.p. 15 min before and 3 and 6 h after LPS 200 μg/20 g i.p. (LD100), log-rank test. The source says:
Female C57BL/6J (8–10 weeks old) mice were purchased from Janvier Labs (France) and MMP-12 knockout mice (MMP-12^−/−) (in C57BL/6J background together with littermate MMP-12^+/+ controls) were obtained from Dr. Steven Shapiro (University of Pittsburgh, USA). C57BL/6 and MMP-12^−/− mice were housed with 4–6 mice/cage with ad libitum access to food and water and with a 14-hour light/10-hour dark cycle in a specific pathogen-free animal facility and conventional facility, respectively. All experiments were approved by the Ethics Committee of the Faculty of Sciences of Ghent University.
Endotoxemia was induced by intraperitoneal (i.p.) injection of lipopolysaccharide (LPS) from Salmonella enterica serotype abortus equi (Sigma) dissolved in PBS. […] Control animals received i.p. injections of PBS. Rectal temperature was measured periodically after challenge. 100 μg MMP-12i (1 μg/μL) or vehicle control was administered intraperitoneally at different time points: 15 min before and 3 and 6 hours after LPS administration.

The subject of assay [13] is primary mouse choroid plexus epithelial cells. The assay is described as follows: Blood-CSF barrier permeability in vitro (ECIS impedance). Type of assay: cell-based. As to conditions: 1 μM inhibitor 1 hour before LPS 1000 ng/mL; n = 3. On the procedure:
Culturing primary mouse choroid plexus epithelial cells was done as described. In brief, 2–9-day-old pups were decapitated and brains were isolated. Choroid plexuses from all four ventricles were isolated under a dissection microscope. The cells were dissociated enzymatically by incubating them for 5–7 min with pronase (isolated from Streptomyces griseus, Sigma). Digestion was stopped by adding an excess of HBSS buffer and the cells were washed twice with HBSS. The cell pellet was resuspended in DMEM-F12 culture medium and plated on laminin-coated plates. Two days later, they were shifted to DMEM-F12 containing cytosine arabinoside (Ara-C) to eliminate growth of fibroblasts. Cultures were maintained at 37°C in 5% CO2. Purity of the cultures was confirmed by checking the levels of transthyretin (TTR) both by qPCR and by immunostaining. Primary CPE cells retained the epithelial and the barrier properties which were confirmed by staining for E-cadherin, ZO-1, and occludin. The electric cell-substrate impedance (ECIS) technique (Applied Biophysics) was used to monitor barrier properties as described before. 250.000 cells per well were seeded onto laminin-coated 8W10E array plates (Applied Biophysics) and the array holder was placed in a standard cell culture incubator (37°C, 100% humidity, and 5% CO2). Array plates were connected to the instrument and multifrequency measurements were started. […]

The target of assay [14] is T10, human recombinant MMP-12 catalytic domain. In words: Detailed dose-response with Substrate XIII (AnaSpec) quenched fluorescent substrate. Type of assay: biochemical. On the procedure: […] Briefly, the compound was dissolved in dimethyl sulfoxide (DMSO) and further diluted in assay buffer (50 mM HEPES, 10 mM CaCl2, 0.05% Brij-35, and pH 7.5). […] In each experiment we included a blank, a substrate control (substrate only in assay buffer), a positive control (NNGH, 1.3 μM final concentration), and negative control (only substrate and inhibitor in assay buffer). The latter was implemented to exclude possible interference of the inhibitor with the substrate. […] The IC50 values were determined in a single experimental run in duplicate. Data analysis and curve fitting for determination of IC50 values were performed in GraphPad Prism 6.

T10 sequence (P39900 106-263 limits assumed): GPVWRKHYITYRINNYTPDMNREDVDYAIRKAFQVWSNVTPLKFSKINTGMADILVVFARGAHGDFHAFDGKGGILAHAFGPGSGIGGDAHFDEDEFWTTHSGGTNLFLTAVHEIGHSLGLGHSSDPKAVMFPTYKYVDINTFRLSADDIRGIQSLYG
T6 sequence (P08254 100-272 limits assumed): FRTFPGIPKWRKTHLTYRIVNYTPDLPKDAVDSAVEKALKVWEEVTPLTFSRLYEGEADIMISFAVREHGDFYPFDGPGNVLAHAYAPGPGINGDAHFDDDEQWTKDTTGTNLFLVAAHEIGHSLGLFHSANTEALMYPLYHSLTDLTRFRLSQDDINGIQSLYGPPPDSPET
T7 sequence (P22894 100-262 limits assumed): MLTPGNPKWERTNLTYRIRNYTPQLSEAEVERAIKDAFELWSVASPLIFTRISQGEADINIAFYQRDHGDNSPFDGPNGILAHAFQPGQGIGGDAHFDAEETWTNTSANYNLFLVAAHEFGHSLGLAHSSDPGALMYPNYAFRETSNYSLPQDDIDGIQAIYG
T8 sequence (P14780 107-444 limits assumed): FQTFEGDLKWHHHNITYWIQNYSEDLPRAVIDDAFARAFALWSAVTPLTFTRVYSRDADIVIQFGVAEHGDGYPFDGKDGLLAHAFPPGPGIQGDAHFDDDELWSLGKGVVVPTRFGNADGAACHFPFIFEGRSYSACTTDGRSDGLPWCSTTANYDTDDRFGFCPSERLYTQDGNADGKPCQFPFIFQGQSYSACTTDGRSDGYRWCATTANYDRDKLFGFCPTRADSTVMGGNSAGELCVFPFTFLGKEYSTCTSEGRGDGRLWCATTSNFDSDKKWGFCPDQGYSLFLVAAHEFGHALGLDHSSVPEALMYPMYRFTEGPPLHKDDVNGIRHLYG
T9 sequence (P09238 99-263 limits assumed): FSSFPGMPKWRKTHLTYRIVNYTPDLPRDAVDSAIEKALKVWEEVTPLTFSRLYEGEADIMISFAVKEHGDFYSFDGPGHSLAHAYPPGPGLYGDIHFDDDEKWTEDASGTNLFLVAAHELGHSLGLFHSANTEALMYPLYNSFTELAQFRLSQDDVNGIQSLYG
T1 sequence (P08253 110-446 limits assumed): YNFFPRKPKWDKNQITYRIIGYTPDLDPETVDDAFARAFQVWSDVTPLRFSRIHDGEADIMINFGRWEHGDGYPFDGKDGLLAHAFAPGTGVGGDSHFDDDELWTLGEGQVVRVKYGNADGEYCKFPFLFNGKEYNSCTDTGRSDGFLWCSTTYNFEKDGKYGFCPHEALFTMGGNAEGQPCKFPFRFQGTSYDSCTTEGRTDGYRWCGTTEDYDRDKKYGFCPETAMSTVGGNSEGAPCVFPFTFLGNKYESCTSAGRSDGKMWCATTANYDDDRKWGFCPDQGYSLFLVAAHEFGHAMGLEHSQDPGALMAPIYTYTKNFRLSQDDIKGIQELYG

`CNC(=O)[C@H](Cc1ccccc1)NC(=O)[C@H](CC(C)C)[C@H](CSc1cccs1)C(=O)NO` [BB-94]: the “protection from LPS-induced lethality” value in assay [1] is “protected from LPS-induced lethality”.
For `Cc1cc(=O)c(O)c(C(=O)NCc2ccc(-c3ccc(-c4ccccc4)cc3)cc2)o1` [Compound 9, N-([1,1′:4′,1′′-Terphenyl]-4-ylmethyl)-3-hydroxy-6-methyl-4-oxo-4H-pyran-2-carboxamide], the IC50 was 2 to 50 µM in assay [2]; 2 to 50 µM in [3]; above 50 µM in [4]; above 50 µM in assay [5]; above 50 µM in assay [6]; above 50 µM in [7]. Besides, the IC50 in [8] is 2 to 50 µM; in assay [9], above 50 µM; in [10], above 50 µM; in [11], below 2 µM; in assay [14] (Figure 1(c) fitted dose-response curve, read-out: log(IC50) MMP-12 (converted)) it was 0.177 µM; in assay [14] (Substrate XIII (AnaSpec), nonlinear regression of dose-response curve, read-out: relative IC50 MMP-12) it was 0.177 µM. In addition, the “LPS-induced lethality (survival) vs vehicle” value in assay [12] was “significant reduction in LPS-induced lethality”. Moreover, in assay [13], the “LPS-induced drop in normalized resistance (ECIS, low frequency)” value is “significantly reduced”. Besides, the “inhibitory plateau at higher inhibitor concentrations, MMP-12” value in assay [14] (Substrate XIII (AnaSpec), nonlinear regression) stood at 72 ± 1.75%.
